pIC50: −log10 of the molar value.
Tests used:
[1] = target: UDP-N-acetylmuramate--L-alanine ligase (Escherichia coli (strain K12), UniProt P17952); assay: E.coli MurC assay; conditions: 25 °C
Method: The reactions (25 μL) were carried out in 25 mM Tris-HCl pH 8.0, 10 mM ammonium sulfate, 1.25 mM DTT, 0.002% Brij-35, 10 mM MgCl2, 40 μM UNAM, 100 μM ATP, 40 μM L-alanine and 15 nM enzyme in 384-well plate at 25 C for 50 minutes.

[2] = target: UDP-N-acetylmuramate--L-alanine ligase (Pseudomonas aeruginosa (strain ATCC 15692 / DSM 22644 / CIP 104116 / JCM 14847 / LMG 12228 / 1C / PRS 101 / PAO1), UniProt Q9HW02); assay: P. aeruginosa MurC assay; conditions: 25 °C
Method: The reactions (50 μL) were carried out in 50 mM Tris-HCl pH 8.0, 20 mM ammonium sulfate, 2.5 mM DTT, 0.002% Brij-35, 1 mM MgCl2, 18 μM UNAM, 38 μM ATP, 28 μM L-alanine, 2 μg/mL Poly uridine nucleic acid, 0.1 μM Polynucleotide Phosphorylase, 0.25X ribogreen and 3 nM enzyme in 384-well plate at 25 C for 60 minutes.

UDP-N-acetylmuramate--L-alanine ligase (Escherichia coli (strain K12), UniProt P17952), sequence (P17952 whole entry): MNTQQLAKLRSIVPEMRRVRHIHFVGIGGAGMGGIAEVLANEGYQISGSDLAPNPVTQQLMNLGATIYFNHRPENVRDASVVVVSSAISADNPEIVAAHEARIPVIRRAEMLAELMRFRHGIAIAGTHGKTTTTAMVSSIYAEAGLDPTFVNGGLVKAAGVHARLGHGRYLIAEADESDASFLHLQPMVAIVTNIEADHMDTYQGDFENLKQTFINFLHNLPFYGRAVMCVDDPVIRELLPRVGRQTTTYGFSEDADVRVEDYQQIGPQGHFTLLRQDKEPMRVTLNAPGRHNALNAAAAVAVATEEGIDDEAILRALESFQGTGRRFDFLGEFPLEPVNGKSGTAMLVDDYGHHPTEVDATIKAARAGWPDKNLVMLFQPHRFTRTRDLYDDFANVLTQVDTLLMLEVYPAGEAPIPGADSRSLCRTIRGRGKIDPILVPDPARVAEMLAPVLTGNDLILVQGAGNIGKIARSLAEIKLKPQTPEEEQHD

Structure (SMILES) | pIC50 [1] | pIC50 [2]
Cn1nc(Nc2nc(N[C@@H](COC(=O)NCCN3CCC(=O)N3)c3ccccc3)nc3n[nH]cc23)cc1C(C)(C)C [(R)-2-(4-(5-tert-butyl-1-methyl-1H-pyrazol-3-ylamino)-1H-pyrazolo[3,4-d]pyrimidin-6-ylamino)-2-phenylethyl 2-(3-oxopyrazolidin-1-yl)ethylcarbamate (25)] | 7.22 | 8.15
Cn1nc(Nc2nc(N[C@@H]3c4ccccc4C[C@@H]3O)nc3n[nH]cc23)cc1C(C)(C)C [(1R,2S)-1-(4-(5-tert-butyl-1-methyl-1H-pyrazol-3-ylamino)-1H-pyrazolo[3,4-d]pyrimidin-6-ylamino)-2,3-dihydro-1H-inden-2-ol (13)] | 8.70 | 
COc1ccc([C@H](CO)Nc2nc(Nc3cc(C(C)(C)C)n(C)n3)c3c[nH]nc3n2)cc1 [(R)-2-((4-((5-(tert-butyl)-1-methyl-1H-pyrazol-3-yl)amino)-1H-pyrazolo[3,4-d]pyrimidin-6-yl)amino)-2-(4-methoxyphenyl)ethanol (16)] | 7.68 | 8.40
Cn1nc(Nc2nc(N[C@@H](COC(=O)NCCN)c3ccccc3)nc3n[nH]cc23)cc1C(C)(C)C [(R)-2-(4-(5-tert-butyl-1-methyl-1H-pyrazol-3-ylamino)-1H-pyrazolo[3,4-d]pyrimidin-6-ylamino)-2-phenylethyl 2-aminoethylcarbamate (22)] | 8.40 | 9.15
OCC1CCCCN1c1nc(Nc2cc(C3CC3)[nH]n2)c2cn[nH]c2n1 (stereo unspecified) [(1-(4-(3-cyclopropyl-1H-pyrazol-5-ylamino)-1H-pyrazolo[3,4-d]pyrimidin-6-yl)piperidin-2-yl)methanol (1)] |  | 6.00
Cn1nc(Nc2nc(N[C@@H](CO)c3cccnc3)nc3n[nH]cc23)cc1C(C)(C)C [(R)-2-((4-((5-(tert-butyl)-1-methyl-1H-pyrazol-3-yl)amino)-1H-pyrazolo[3,4-d]pyrimidin-6-yl)amino)-2-(pyridin-3-yl)ethanol (15)] |  | 8.05
Cn1nc(Nc2nc(N[C@H](CO)c3cccc(F)c3)nc3n[nH]cc23)cc1C(C)(C)C [(S)-2-((4-((5-(tert-butyl)-1-methyl-1H-pyrazol-3-yl)amino)-1H-pyrazolo[3,4-d]pyrimidin-6-yl)amino)-2-(3-fluorophenyl)ethanol (17)] | 8.40 | > 9.30
Cn1nc(Nc2nc(N[C@H](CO)c3ccccc3)nc3[nH]ncc23)cc1C(C)(C)C [(S)-2-(4-(5-tert-butyl-1-methyl-1H-pyrazol-3-ylamino)-1H-pyrazolo[3,4-d]pyrimidin-6-ylamino)-2-phenylethanol (11)] | 7.96 | 8.10
Cn1nc(Nc2nc(NC(CO)C3CCOCC3)nc3n[nH]cc23)cc1C(C)(C)C (stereo unspecified) [2-(4-(5-tert-butyl-1-methyl-1H-pyrazol-3-ylamino)-1H-pyrazolo[3,4-d]pyrimidin-6-ylamino)-2-(tetrahydro-2H-pyran-4-yl)ethanol (8)] | 7.00 | 7.96
Cn1nc(Nc2nc(N[C@@H](COC(=O)N3CCOC(CN)C3)c3ccccc3)nc3n[nH]cc23)cc1C(C)(C)C (stereo partly drawn) [(R)-((R)-2-(4-(5-tert-butyl-1-methyl-1H-pyrazol-3-ylamino)-1H-pyrazolo[3,4-d]pyrimidin-6-ylamino)-2-phenylethyl) 2-(aminomethyl)morpholine-4-carboxylate (26)] | 8.30 | 9.22
Cn1nc(Nc2nc(N[C@@H](CO)c3ccccc3)nc3n[nH]cc23)cc1C(C)(C)C [(R)-2-(4-(5-tert-butyl-1-methyl-1H-pyrazol-3-ylamino)-1H-pyrazolo[3,4-d]pyrimidin-6-ylamino)-2-phenylethanol (10)] | > 8.30 | 9.00
Cn1nc(Nc2nc(N[C@@H](CO)c3ccncc3Cl)nc3n[nH]cc23)cc1C(C)(C)C [(R)-2-((4-((5-(tert-butyl)-1-methyl-1H-pyrazol-3-yl)amino)-1H-pyrazolo[3,4-d]pyrimidin-6-yl)amino)-2-(3-chloropyridin-4-yl)ethanol (19)] | 7.24 | 8.10

More lines, now with the values ahead:

pIC50 [1] | pIC50 [2] | Structure (SMILES)
> 9.00 | 8.89 | Cn1nc(Nc2nc(N[C@@H](COC(=O)NCc3cc(=O)c(O)cn3O)c3ccccc3)nc3[nH]ncc23)cc1C(C)(C)C [(R)-2-(4-(5-tert-butyl-1-methyl-1H-pyrazol-3-ylamino)-1H-pyrazolo[3,4-d]pyrimidin-6-ylamino)-2-phenylethyl(1,5-dihydroxy-4-oxo-1,4-dihydropyridin-2-yl)methylcarbamate (23)]
 | 9.22 | Cn1nc(Nc2nc(N[C@@H](CO)C3CCCCC3)nc3n[nH]cc23)cc1C(C)(C)C [(R)-2-(4-(5-tert-butyl-1-methyl-1H-pyrazol-3-ylamino)-1H-pyrazolo[3,4-d]pyrimidin-6-ylamino)-2-cyclohexylethanol (6)]
 | 7.30 | OC[C@@H](Nc1nc(Nc2cc(C3CC3)n[nH]2)c2c[nH]nc2n1)C1CCCCC1 [(S)-2-cyclohexyl-2-(4-(3-cyclopropyl-1H-pyrazol-5-ylamino)-1H-pyrazolo[3,4-d]pyrimidin-6-ylamino)ethanol (2)]
7.22 | 8.15 | Cc1cc([C@H](CO)Nc2nc(Nc3cc(C(C)(C)C)n(C)n3)c3c[nH]nc3n2)on1 [(S)-2-(4-(5-tert-butyl-1-methyl-1H-pyrazol-3-ylamino)-1H-pyrazolo[3,4-d]pyrimidin-6-ylamino)-2-(3-methylisoxazol-5-yl)ethanol (12)]
 | 8.00 | CC(C)c1cc(Nc2nc(N[C@H](CO)C3CCCCC3)nc3n[nH]cc23)[nH]n1 [(S)-2-cyclohexyl-2-(4-(5-isopropyl-1H-pyrazol-3-ylamino)-1H-pyrazolo[3,4-d]pyrimidin-6-ylamino)ethanol (3)]
6.73 | 7.89 | CC(C)[C@H](CO)Nc1nc(Nc2cc(C(C)(C)C)n(C)n2)c2c[nH]nc2n1 [(R)-2-(4-(5-tert-butyl-1-methyl-1H-pyrazol-3-ylamino)-1H-pyrazolo[3,4-d]pyrimidin-6-ylamino)-3-methylbutan-1-ol (9)]
7.40 | 8.10 | Cn1nc(Nc2nc(N[C@@H](CO)c3ccccn3)nc3n[nH]cc23)cc1C(C)(C)C [(R)-2-((4-((5-(tert-butyl)-1-methyl-1H-pyrazol-3-yl)amino)-1H-pyrazolo[3,4-d]pyrimidin-6-yl)amino)-2-(pyridin-2-yl)ethanol (14)]
8.52 | > 9.30 | CN1C(=O)NC[C@H]1CNC(=O)OC[C@H](Nc1nc(Nc2cc(C(C)(C)C)n(C)n2)c2c[nH]nc2n1)c1ccccc1 [(R)-2-(4-(5-tert-butyl-1-methyl-1H-pyrazol-3-ylamino)-1H-pyrazolo[3,4-d]pyrimidin-6-ylamino)-2-phenylethyl ((S)-3-methyl-2-oxoimidazolidin-4-yl)methylcarbamate (24)]
 | 8.30 | Cn1nc(Nc2nc(N[C@H](CO)C3CCCCC3)nc3n[nH]cc23)cc1C(C)(C)C [((S)-2-(4-(5-tert-butyl-1-methyl-1H-pyrazol-3-ylamino)-1H-pyrazolo[3,4-d]pyrimidin-6-ylamino)-2-cyclohexylethanol (7)]
7.28 | 8.22 | Cn1nc(Nc2nc(N[C@@H](COC(=O)NO)c3ccccc3)nc3n[nH]cc23)cc1C(C)(C)C [(R)-2-(4-(5-tert-butyl-1-methyl-1H-pyrazol-3-ylamino)-1H-pyrazolo[3,4-d]pyrimidin-6-ylamino)-2-phenylethyl hydroxycarbamate (20)]
8.52 | 8.70 | Cn1nc(Nc2nc(N[C@@H](COC(=O)NCCO)c3ccccc3)nc3n[nH]cc23)cc1C(C)(C)C [(R)-2-(4-(5-tert-butyl-1-methyl-1H-pyrazol-3-ylamino)-1H-pyrazolo[3,4-d]pyrimidin-6-ylamino)-2-phenylethyl 2-hydroxyethylcarbamate (21)]
7.82 | 8.92 | COc1cc([C@H](CO)Nc2nc(Nc3cc(C(C)(C)C)n(C)n3)c3c[nH]nc3n2)ccn1 [(R)-2-(4-(5-tert-butyl-1-methyl-1H-pyrazol-3-ylamino)-1H-pyrazolo[3,4-d]pyrimidin-6-ylamino)-2-(2-methoxypyridin-4-yl)ethanol (18)]
